Experimental data taken from patent US20090117089A1, “GLYCOLIPIDS AND ANALOGUES THEREOF AS ANTIGENS FOR NK T CELLS” (The Rockefeller University, priority 2005, published 2009).
“Also recorded” adds a separate entry of the source.

Columns and labels:
[1] = test system: human NKT cells (Vα24/Vβ11); assay: Human dendritic cell mediated NKT cell expansion; format: cell-based; details: DCs loaded with glycolipid; data not shown
[2] = test system: human NKT cells (Vα24/Vβ11); assay: Human dendritic cell mediated NKT cell expansion; format: cell-based; parameters: NKT cell expansion (Table 1): unit not given here; details: for NKT cell expansion by loaded human DCs: DC to responder ratio 1:10
Excerpt: Human dendritic cell mediated NKT cell expansion. CD14+ monocytes were isolated from PBMC using anti-CD14 magnetic microbeads and cultured in the presence of GM-CSF and IL-4 to generate DCs, followed at day 5-6, by maturation in an inflammatory cytokine cocktail as described herein. To stimulate NKT cells, DCs were pulsed with α-GalCer and the tested analogs, and cultured with CD14− cells at a DC: responder ratio of 1:10. NKT cell expansion was monitored by flow cytometry based on the expression of the invariant NKT cell receptor (Vα24/Vβ11).

[3] = test system: spleen CD11c+ DCs; assay: DC maturation in vivo (surface markers, flow cytometry); parameters: species or system mouse; details: for dose dependence of DC maturation: 2, 0.2, 0.02 and 0.002 μg/mouse; for DC maturation response compared with αCD40 mAb and polyIC: 15 h following i.v. administration; for DC maturation in Jα281−/− mice: mice lacking NKT cells; for phenotypic changes of DC maturation (CD40, CD86, MHC class II, B7-H1, B7-DC up, CD119 down): mouse, in vivo; for induction of splenic DC maturation in vivo: surface activation markers
Protocol: 2×10^7 irradiated J558-Ld^− cells, were injected i.v. or s.c. into Balb/c mice with or without α-Gal Cer as a DC maturation stimulus. In some experiments we compared α-Gal Cer to agonistic anti-CD40 mAb (1C10, 25 μg i.p.) or the toll like receptor ligands, poly IC ([…], Invivogen) or lipopolysaccharide (20 μgm, Sigma). The mice had been given CFSE-labeled PICTL CD8^+ T cells i.v. 1 d earlier, or were naive animals. In some experiments, mice were sacrificed 3 d later, and T cell division and activation in spleen were analyzed by flow cytometry. Additionally, 7 d or 2 months later, 5×10^6 live J558 tumor cells were inoculated subcutaneously. 5×10^6 Meth A fibrosarcoma was used as a control tumor for challenge. Tumor cell growth was measured with calipers every other day. Mice were scored positive for tumor as soon as tumors became palpable and grew progressively. Mice were euthanized when tumor size exceeded 400 mm^2.
T-cell division, phagocytosis of CFSE-labeled tumor cells and acquisition of cell surface-activation markers were determined by flow cytometry. Briefly, spleens were harvested and low-density splenocytes were stained with CD11c-APC and CD8α-PE, CD11b-PE, B220-PE or CD4-PE for the up-take examination. For in vivo proliferation of P1CTL T-cells, spleens were harvested and the splenocytes suspension was staining with CD8α-Cy, Vα8α-PE, CD25-PE, CD62L-PE. For intracellular cytokine staining, splenocytes were stimulated in vitro with 1 µg/ml P1A peptide in 5 μg/ml brefeldin A (Sigma-Aldrich) at 37° C. for 4 hrs. The cells were first stained with CD8α-Cy-Chrome™, fixed and permeabilized with cytofix-cytoperm buffer (BD Biosciences), and stained with PE conjugated mAbs to IL-2 or IFN-γ.
Flow cytometry. Acquisition of cell surface-activation markers was determined by flow cytometry. […] Spleen CD11c+ DCs were isolated using anti-CD11c magnetic beads and stained with CD11c-FITC, CD8α− allophycocyanin, and PE-Conjugated I-Ad, CD40, CD80, CD86, CD119, B7-H1 and B7-DC. We used a FACSCalibur™ with data analysis in FlowJo (Tree Star).

[4] = test system: DCs from bone marrow progenitors; assay: Direct DC maturation from bone marrow progenitors in culture; format: cell-based; details: data not shown
[5] = test system: CD1d reactive T cell hybridomas with an invariant Vα14i T cell antigen receptor; assay: 1.2 hybridoma assay (IL-2 release by ELISA); format: cell-based, mouse
Protocol: As a measure of T cell activation, IL-2 release into the tissue culture medium was measured after 16 hours culture by an ELISA assay.
As a measure of T cell activation, IL-2 and IFN-γ release into the tissue culture medium was measured after 16 hours culture by an ELISA assay.

[6] = test system: serum IFN-γ, IL-12p70 and other cytokines; assay: Serum cytokines (Luminex); format: in vivo, mouse; details: for serum IFNγ: 15 hours; for serum IFN-γ, IL-12p70, IL-4, TNF-α and IL-2 response: 2, 6, 12 and 24 h; for serum IFN-γ and IL12p70 release in Jα281−/− mice: i.v. injection
Protocol: Serum cytokines. […] 25 μl of sample was preincubated with serum diluent and incubated for 2 h with Beadmates coated with anti-cytokine mAbs. The fluid was then aspirated and the wells incubated for 1.5 h with biotin-conjugated anti-cytokine mAbs followed by 30 min incubation with Beadlyte streptavidin-PE secondary antibody. Samples were acquired in duplicate by Luminex and analyzed using Beadview software (Upstate).

[7] = test system: spleen CD11c+ cells (DCs and NK cells); assay: Cytokine production by DCs after in vivo glycolipid; parameters: species or system mouse; details: for IL-12p40, IL-6 and TNF-α from DCs of primed mice: cultured in the presence of αCD40, ELISA and Luminex, data not shown
Protocol: Cytokine production by DCs. After mice were given αGalCer or Compound 24 i.v., CD11c+ cells were isolated with anti-CD11c magnetic beads and cultured 4 h in the presence of Golgistop (from Cytofix/CytoPerm Plus kit; BD Biosciences). Cells were then stained for surface markers (CD11c and DX-5), permeabilized in 100 μl Cytofix/Cytoperm solution using manufacturer's instructions and stained for intracellular cytokines (IFN-γ and IL-12).

[8] = test system: allogeneic C57B1/6 or syngeneic T cells; assay: Stimulation of the mixed leukocyte reaction (MLR) by DCs; format: cell-based, mouse
Protocol: Stimulation of the mixed leukocyte reaction (MLR) by DCs. Spleen DCs were isolated using anti-CD11c magnetic beads 8 h after administration of αGalCer, 24, or PBS. Graded numbers of spleen DCs from BALB/C mice were irradiated and cultured with 2×10^5 allogeneic C57B1/6 or syngeneic T cells, isolated using anti-CD4 coated magnetic beads (Miltenyi Biotech), in a 96-well flat-bottom plate for 88 h. During the final 16 h, ^3H-thymidine (1 μCi/well) was added.

[9] = 2 μg or 0.2 μg, 2, 6, 12 h in vivo, intracellular staining

## 3-O-sulfo-alpha-galactosylceramide [Compound 24]
[1]
  production of IFNγ, IL-13 and IL-2 by NKT cells: induced rapid production of IFNγ, IL-13 and IL-2
[2]
  NKT cell expansion by loaded human DCs: efficiently expanded human NKT cells; also recorded: comparable or higher than expansion mediated by DCs loaded with αGalCer
[2]; Donor 1
  NKT cell expansion (Table 1): 3.19
[2]; Donor 2
  NKT cell expansion (Table 1): 5.95
[2]; Donor 3
  NKT cell expansion (Table 1): 1.51
[2]; Donor 4
  NKT cell expansion (Table 1): 4.95
[3]
  dose dependence of DC maturation: correlated with the dose of glycolipid administered
  DC maturation response compared with αCD40 mAb and polyIC: paralleled and exceeded those seen with other known stimuli for DC maturation in vivo
  DC maturation in Jα281−/− mice: did not mature
  phenotypic changes of DC maturation (CD40, CD86, MHC class II, B7-H1, B7-DC up, CD119 down): induced similar phenotypic changes of maturation
  induction of splenic DC maturation in vivo: rapid and efficient inducers of splenic DC maturation in vivo
[3]; 15 hours after i.v. glycolipid
  surface markers on CD11c+CD8− DCs: induced strong upregulation of CD86, B7-H1 and B7-DC but only slightly upregulated MHC II, CD40 and CD80
[3]; 15 hours after i.v. glycolipid, 2 or 0.2 μg per mouse
  upregulation of activation markers on CD11c+CD8+ DCs: comparable to αGalCer
[4]
  direct stimulation of DC maturation: unable to directly stimulate DC maturation from bone marrow progenitors in culture
[5]
  biological activity in the 1.2 hybridoma assay (IL-2 secretion): moderately active
[6]; 0.02 μg, 15 h
  serum IL-12p70: ~900 pg/mL
[6]; 0.02 μg
  serum IFNγ: ~1200 pg/mL
[6]; 2 μg i.v.
  serum IFN-γ, IL-12p70, IL-4, TNF-α and IL-2 response: significantly higher at all time points examined
[6]; 2 μg i.v., by 6 h
  serum IL-12p70: ~1000 pg/mL
[6]; 2 μg i.v., by 12 h
  serum IFN-γ: ~3000 pg/mL
  serum IL-12p70: ~900 pg/mL
[6]; all doses tested, 15 hours after i.v. injection
  serum IFN-γ and IL-12p70, 24 vs. αGalCer: at least 2.5 fold
[6]
  serum IFN-γ and IL12p70 release in Jα281−/− mice: lacked the ability to release IFN-γ and IL12p70 into the serum
[7]; [9]
  production of IFN-γ by CD11c+DX5+ NK cells, vs. αGalCer: significantly higher
  production of IL-12 by CD11c+DX5− DCs, vs. αGalCer: significantly higher
[7]
  IL-12p40, IL-6 and TNF-α from DCs of primed mice: significant but comparable amounts of IL-12p40, IL-6 and TNF-α
[8]
  stimulation of allogeneic T cells (allo-MLR) by DCs from treated mice: equally potent stimulators of the allo-MLR
  stimulation of syngeneic T cells (syn-MLR) by DCs from treated mice: no stimulatory activity in the syn-MLR

## CCCCCCCCCCCCCCCCCCCCCCCCCC(=O)N[C@@H](CO[C@H]1O[C@H](CO)[C@H](O)[C@H](O)[C@H]1O)[C@H](O)[C@H](O)CCCCCCCCCCCCCC [α-GalCer, 2S,3S,4R-1-O(α-galactopyranosyl)-2(N-hexacosanoylamino)-1,3,4-octadecanetriol]
[1]
  production of IFNγ, IL-13 and IL-2 by NKT cells: induced rapid production of IFNγ, IL-13 and IL-2
[2]
  NKT cell expansion by loaded human DCs: efficient inducers of NKT cell expansion in culture
[2]; Donor 1
  NKT cell expansion (Table 1): 3.55
[2]; Donor 2
  NKT cell expansion (Table 1): 2.65
[2]; Donor 3
  NKT cell expansion (Table 1): 1.53
[2]; Donor 4
  NKT cell expansion (Table 1): 3.55
[3]
  dose dependence of DC maturation: correlated with the dose of glycolipid administered
  DC maturation response compared with αCD40 mAb and polyIC: paralleled and exceeded those seen with other known stimuli for DC maturation in vivo
  DC maturation in Jα281−/− mice: did not mature
  phenotypic changes of DC maturation (CD40, CD86, MHC class II, B7-H1, B7-DC up, CD119 down): induced similar phenotypic changes of maturation
  induction of splenic DC maturation in vivo: rapid and efficient inducers of splenic DC maturation in vivo
[3]; 15 hours after i.v. glycolipid
  surface markers on CD11c+CD8− DCs: induced strong upregulation of CD86, B7-H1 and B7-DC but only slightly upregulated MHC II, CD40 and CD80
[3]; co-injection with irradiated J558− cells i.v.
  marker expression on DCs that captured dying tumor cells (CD11c+ CFSE+): strongly upregulated the expression of antigen presenting and costimulatory molecules
[3]; co-injection with irradiated J558− cells i.v., 5 hours
  maturation of total CD11c+ splenic DCs (MHC II, CD80, CD86, B7-H1, B7-DC): resulted in the maturation of the total CD11c^+ DC population
[4]
  direct stimulation of DC maturation: unable to directly stimulate DC maturation from bone marrow progenitors in culture
[5]; 1 μg/ml, CD1d transfected A20 cells
  IL-2 release from the hybridomas: greatest amount of IL-2 release
[5]; CD1d coated plates, Sphingomonas glycolipids and analogues
  IL-2 secretion: greater IL-2 secretion
[6]; 0.02 μg, 15 h
  serum IL-12p70: ~50 pg/mL
[6]; 0.02 μg
  serum IFNγ: ~100 pg/mL
[6]; 2 μg i.v.
  serum IFN-γ, IL-12p70, IL-4, TNF-α and IL-2 response: induced rapid increases in serum IFN-γ, IL-12p70, IL-4, TNF-α and IL-2 concentrations
[6]; 2 μg i.v., by 6 h
  serum IFN-γ: 6000 pg/mL
  serum IL-12p70: ~600 pg/mL
[6]; 2 μg i.v., by 12 h
  serum IFN-γ: ~1200 pg/mL
  serum IL-12p70: ~200 pg/mL
[6]
  serum IFN-γ and IL12p70 release in Jα281−/− mice: lacked the ability to release IFN-γ and IL12p70 into the serum
[7]
  IL-12p40, IL-6 and TNF-α from DCs of primed mice: significant but comparable amounts of IL-12p40, IL-6 and TNF-α
[8]
  stimulation of allogeneic T cells (allo-MLR) by DCs from treated mice: equally potent stimulators of the allo-MLR
  stimulation of syngeneic T cells (syn-MLR) by DCs from treated mice: no stimulatory activity in the syn-MLR
